Where two headings read alike, the source gives them in different places.
Key:
[1] = simvastatin 40 mg co-administered; cited from earlier work
[2] = simvastatin 80 mg; cited from earlier work
[3] = both, human, in vivo, po, 100 mg
[4] = single 600 mg dose of cyclosporine; cited from earlier work
[5] = mainly through active tubular secretion; cited from earlier work
clinical = settings: both, human, in vivo, 100 mg; for AUC(0-inf): AUC0-∞; for CL renal: CLR; for half-life: t1/2
[6] = type: in vivo, human; settings: atorvastatin 40 mg for five days, CGC/CGC, CGC/TTT
[7] = atorvastatin 80 mg; cited from earlier work

In the case of `N#C[C@@H]1C[C@@H]2C[C@@H]2N1C(=O)[C@@H](N)C12CC3CC(CC(O)(C3)C1)C2` [saxagliptin], the “increase of AUC by simvastatin” value [1] is given as 12%.

For `N#C[C@@H]1CCCN1C(=O)CNC12CC3CC(CC(O)(C3)C1)C2` [vildagliptin], the “effect of simvastatin on multiple-dose pharmacokinetics” value [2] is given as “did not alter”.

In the case of `N[C@@H](CC(=O)N1CCn2c(nnc2C(F)(F)F)C1)Cc1cc(F)c(F)cc1F` [Sitagliptin, sitagliptin], the Cmax [3] is listed as 438 ± 152 ng/mL, the “effect of cyclosporine on Cmax” value [4] is listed as “modestly increased” and the “effect of cyclosporine on overall plasma exposure” value [4] is listed as “did not have a significant effect”. For the same compound, the “drug excreted unchanged in the urine” value [5] was “about 80%”, the AUC(0-inf) (clinical) was 3220 ng·h/mL and the CL renal (clinical) was 254 mL/min. It also gave a Cmax (clinical) of 399 ng/mL, a half-life (clinical) of 7.4 ± 2.5 h and an AUC(0-t) (clinical; po, AUC0-24) of 3230 ± 1220 ng·h/mL. For the same compound, the AUC(0-inf) (clinical; po) was 3640 ± 1440 ng·h/mL, the CL renal (clinical; po) was 254 ± 176 mL/min and the Cmax (clinical; po) was 454 ± 180 ng/mL. The half-life (clinical; po) was 7.3 ± 3 h.

In the case of `CC(C)c1c(C(=O)Nc2ccc(O)cc2)c(-c2ccccc2)c(-c2ccc(F)cc2)n1CCC1CC(O)CC(=O)O1` (stereo not drawn) [4-hydroxyatorvastatin lactone], the “influence of ABCB1 diplotype on pharmacokinetic parameters” value (“influence of ABCB1 diplotype” below) [6] is reported as “not significantly affected”.

For `CC(C)c1c(C(=O)Nc2ccc(O)cc2)c(-c2ccccc2)c(-c2ccc(F)cc2)n1CC[C@@H](O)C[C@@H](O)CC(=O)O` [4-hydroxyatorvastatin], the “influence of ABCB1 diplotype” value [6] was “not significantly affected”.

For `Cn1c(=O)cc(N2CCC[C@@H](N)C2)n(Cc2ccccc2C#N)c1=O` [alogliptin], the “effect of atorvastatin on multiple-dose pharmacokinetics” value [7] is listed as “did not alter”.

For `CC(C)c1c(C(=O)Nc2ccccc2O)c(-c2ccccc2)c(-c2ccc(F)cc2)n1CCC1CC(O)CC(=O)O1` (stereo not drawn) [2-hydroxyatorvastatin lactone], the “influence of ABCB1 diplotype” value [6] was “not significantly affected”.

With `CC(C)c1c(C(=O)Nc2ccccc2)c(-c2ccccc2)c(-c2ccc(F)cc2)n1CC[C@@H]1C[C@@H](O)CC(=O)O1` [Atorvastatin lactone, atorvastatin lactone] the “influence of ABCB1 diplotype” value [6] was “did not differ significantly”.

In the case of `CC(C)c1c(C(=O)Nc2ccccc2O)c(-c2ccccc2)c(-c2ccc(F)cc2)n1CCC(O)CC(O)CC(=O)O` (stereo not drawn) [2-hydroxyatorvastatin], the “influence of ABCB1 diplotype” value [6] is reported as “not significantly affected”.

Reference: article PMC3676426 (European journal of clinical pharmacology, 2013)
